# Read-outs that look alike come from different tables or passages of the source.
# Legend:
# [1] = tested on: isolated perfused rat pancreas; experiment: IRI (insulin) release from the isolated perfused rat pancreas
# From the text: Such a use should be especially safe as no hypoglycaemia will occur during treatment because of the lack of IRI releasing effect in the presence of hypoglycaemia and normoglycaemia.
# Furthermore, it is stated therein that compounds of formula I show no or minor, negligible metabolic effects. […] Based thereupon it is surprising that compounds of formula I have an insulin releasing effect on animals primed with glucose corresponding to hyperglycaemia.
# [2] = tested on: rats; experiment: Experiment A: effect on IRI-release in glucose-infused rats in vivo (RIA on plasma); set-up: species or system Wistar strain; details: anaesthetized rats, i.v. glucose 1.5 mg/min + glucagon(1-21) 100 µg/kg/h
# Procedure: 10 male rats, Wistar strain, 150 g (+/- 5 g) were anaesthetized with Pentobarbital. Polyethylene catheters were inserted into the right carotid artery for blood sampling and the left jugular vein for infusions. The rats were divided into two groups with 5 animals in each group. One group was infused with glucose (1.5 mg/min) from 0 to 60 minutes (placebo) and one group was infused with glucose (1.5 mg/min) + glucagon(1-21) (100 µg/kg/h) from […]. Blood was sampled into glasses on ice containing heparin (250 IU/ml) and aprotinin (600 KIU/ml) at the times 0, 1, 10, 20, 30, 40, 50, and 60 minutes. Insulin was determined by radio- immuno assay (RIA) on plasma.
# [3] = tested on: rats; experiment: Experiment B1: effect on blood glucose in rats in vivo, intravenous glucose infusion; set-up: species or system Wistar rats; details: for Blood glucose: rats, i.v. glucose 2 mg/min 0-30 min, then infusion of 1 mg glucagon(1-21) 30-60 min
# Procedure: Blood samples were drawn from the carotid artery at the times 0, 2, 5, 10, 20, 25, 30, 40, 50, and 60 minutes and blood glucose values were determined by the hexokinase method on an autoanalyzer. The blood glucose values are stated in Table II below.
# [4] = tested on: pigs; experiment: Experiment C1: effect on plasma glucose in pigs during intravenous glucose infusion; type: in vivo, pigs (Danish breed/Yorkshire); details: for Plasma glucose: pigs, cross-over, i.v. glucose 0.7 g/kg/h + glucagon(1-21) 100 µg/kg/h 0-120 min
# Procedure: The effect of glucagon(1-21) on plasma glucose levels was investigated during an intravenous glucose infusion. 4 female pigs (Danish breed/Yorkshire) weighing 30 kg (+/- 3 kg) were dosed with glucose (0.7 g/kg/h) as an intravenous infusion and with the same glucose infusion + infusion of glucagon(-1-21) (100µg/kg/h) from 0 to 120 minutes. The experiment was carried out as a cross-over experiment. The pigs were infused through intravenous ear catheters and blood samples were taken from the other ear at the times 0, 15, 30, 45, 60, 75, 90, 105, and 120 minutes. Glucose was analyzed by the hexokinase method and the blood glucose values are stated in Table IV below.
# [5] = tested on: pigs; experiment: Experiment C2: oral glucose tolerance test in pigs; type: in vivo; details: cross-over, glucose 5 g/kg perorally at 0 and 60 min, glucagon(1-21) 1 mg/kg/h i.v. 0-120 min
# Procedure: The effect of glucagon(1-21) on plasma glucose levels was investigated during an oral glucose tolerance test in pigs. 4 pigs were dosed in a cross-over experiment with glucose (5 g/kg) perorally at 0 and 60 minutes + placebo (saline with HSA) or glucagon(1-21) (1 mg/kg/h) from 0 to 120 minutes intravenously. Blood samples were drawn from an ear vein at the times -5, 10, 20, 30, 45, 60, 75, 90, 105, and 120 minutes and plasma glucose was assayed by the hexokinase method. The plasma glucose values are stated in Table V below: […]
# [6] = tested on: Normoglycaemic Rats; experiment: Experiment D: effect on plasma glucose and plasma IRI levels in normoglycaemic rats; type: in vivo, Wistar rats; details: for Blood glucose / Plasma IRI: i.v. injection at 0 min, equimolar doses (glucagon 1 mg/kg, glucagon(1-21) 0.77 mg/kg), mean, N = 10
# Procedure: Glucagon (-1 mg/kg) and an equimolar dosis of glucagon(1-21), i.e. 0.77 mg/kg, were injected intravenously at the beginning time (time: 0 minutes) to normally fed male Wistar rats weighing 150 g (+/- 5 g). Blood samples were taken from the orbital plexus at the times -5, 2, 5, 10, 15, 30, and 60 minutes. Blood glucose was assayed according to the hexokinase method and plasma insulin was assayed by RIA. […] Contrary to glucagon, glucagon(1-21) had no effect on these parameters. Mean blood glucose values (N = 10) are stated in Table VI below, and mean plasma IRI values (N = 10) are stated in Table VII below.
# [7] = tested on: NMRI mice; experiment: Experiment E: acute toxicity study; type: in vivo; details: 10 mg intravenously as a bolus, about 500 mg/kg body weight
# [8] = tested on: rat free fat cells; experiment: Lipolytic effect on rat free fat cells in vitro; type: cell-based; details: compared with glucagon
# [9] = tested on: rats; experiment: Metabolic effects after administration to normally fasted and fed rats in vivo
# [10] = tested on: isolated perfused rat pancreas; details: buffer glucose concentration 1.0 mg/ml corresponding to normoglycaemia or below; statement of Danish patent application No. 2885/81; cited from earlier work
# [11] = normally fed rats, i.v., glucagon 1 mg/kg, glucagon(1-21) 0.77 mg/kg
substance,measurement,setting,value
"glucagon-(1-21)-heneicosapeptide (HSQGTFTSDYSKYLDSRRAQD; Glucagon; UniProt P01275 53-73, looked up, fragment) [glucagon(1-21)]",insulin releasing effect,[1]; at hyperglycaemia,have this effect
same,insulin release,"[1]; buffer glucose concentration 0.6 mg/ml corresponding to hypoglycaemia, infused to the same concentration as glucagon",no such effect
same,"IRI (immunoreactive insulin) releasing effect, as share of glucagon's",[1]; buffer glucose concentration 1.5 mg/ml corresponding to mild hyperglycaemia,about 60%
same,"IRI (immunoreactive insulin) releasing effect, as share of glucagon's",[1]; buffer glucose concentration 2.0 mg/ml corresponding to hyperglycaemia,about 85%
same,IRI,[2]; time 0 min,18 µU/ml
same,IRI,[2]; time 1 min,43 µU/ml
same,IRI,[2]; time 10 min,48 µU/ml
same,IRI,[2]; time 20 min,62 µU/ml
same,IRI,[2]; time 30 min,56 µU/ml
same,IRI,[2]; time 40 min,56 µU/ml
same,IRI,[2]; time 50 min,60 µU/ml
same,IRI,[2]; time 60 min,55 µU/ml
same,glucose tolerance,"[3]; glucose primed rats, infused intravenously",improves the glucose tolerance
same,Blood glucose,[3]; time 0 min,1.0 mg/mL
same,Blood glucose,[3]; time 2 min,1.2 mg/mL
same,Blood glucose,[3]; time 5 min,1.4 mg/mL
same,Blood glucose,[3]; time 10 min,1.5 mg/mL
same,Blood glucose,[3]; time 20 min,1.7 mg/mL
same,Blood glucose,[3]; time 25 min,1.9 mg/mL
same,Blood glucose,[3]; time 30 min,1.9 mg/mL
same,Blood glucose,[3]; time 40 min,1.3 mg/mL
same,Blood glucose,[3]; time 50 min,1.0 mg/mL
same,Blood glucose,[3]; time 60 min,0.8 mg/mL
same,glucose tolerance,"[4]; glucose primed pigs, infused intravenously",improves the glucose tolerance
same,Plasma glucose,[4]; time 0 min,0.9 mg/mL
same,Plasma glucose,[4]; time 15 min,1.5 mg/mL
same,Plasma glucose,[4]; time 30 min,1.7 mg/mL
same,Plasma glucose,[4]; time 45 min,1.8 mg/mL
same,Plasma glucose,[4]; time 60 min,1.9 mg/mL
same,Plasma glucose,[4]; time 75 min,1.8 mg/mL
same,Plasma glucose,[4]; time 90 min,2.0 mg/mL
same,Plasma glucose,[4]; time 105 min,1.9 mg/mL
same,Plasma glucose,[4]; time 120 min,1.9 mg/mL
same,Plasma glucose,[5]; time 10 min,1.0 mg/mL
same,Plasma glucose,[5]; time 20 min,1.4 mg/mL
same,Plasma glucose,[5]; time 30 min,1.7 mg/mL
same,Plasma glucose,[5]; time 45 min,1.8 mg/mL
same,Plasma glucose,[5]; time 60 min,1.9 mg/mL
same,Plasma glucose,[5]; time 75 min,1.8 mg/mL
same,Plasma glucose,[5]; time 90 min,1.7 mg/mL
same,Plasma glucose,[5]; time 105 min,1.7 mg/mL
same,Plasma glucose,[5]; time 120 min,2.1 mg/mL
same,Plasma glucose,[5]; time -5 min,0.8 mg/mL
same,hyperglycaemia,[6]; in vivo in normally fed rats,does not cause hyperglycaemia
same,insulin release,[6]; in vivo in normally fed rats,does not cause hyperglycaemia or release insulin
same,IRI release and plasma glucose levels,[6]; infused to rats and pigs with plasma glucose levels below 1.2 mg/ml,neither release IRI nor influence the plasma glucose levels
same,Blood glucose,"[6]; normally fed rats, time 2 min",1.1 mg/mL
same,Plasma IRI,"[6]; normally fed rats, time 2 min",30 µU/ml
same,Blood glucose,"[6]; normally fed rats, time 5 min",1.1 mg/mL
same,Plasma IRI,"[6]; normally fed rats, time 5 min",33 µU/ml
same,Blood glucose,"[6]; normally fed rats, time 10 min",1.2 mg/mL
same,Plasma IRI,"[6]; normally fed rats, time 10 min",35 µU/ml
same,Blood glucose,"[6]; normally fed rats, time 15 min",1.3 mg/mL
same,Plasma IRI,"[6]; normally fed rats, time 15 min",43 µU/ml
same,Blood glucose,"[6]; normally fed rats, time 30 min",1.3 mg/mL
same,Plasma IRI,"[6]; normally fed rats, time 30 min",38 µU/ml
same,Blood glucose,"[6]; normally fed rats, time 60 min",1.3 mg/mL
same,Plasma IRI,"[6]; normally fed rats, time 60 min",30 µU/ml
same,Blood glucose,"[6]; normally fed rats, time -5 min",1.0 mg/mL
same,Plasma IRI,"[6]; normally fed rats, time -5 min",32 µU/ml
same,effect on blood glucose,[6]; [11],no effect
same,effect on plasma IRI,[6]; [11],no effect
same,adverse effects,[7],no adverse effects
same,deaths,[7],No deaths occurred
same,lipolytic effect,[8],negligible
same,metabolic effects,[9],No metabolic effects have been found
same,insulin release,[10],does not release insulin
